Measurements taken from patent US9096624B2 (OSI Pharmaceuticals, LLC, priority 2009, dated 2015).

Legend:
FAK [1] = target: T1, FAK (Homo sapiens, UniProt Q05397); assay: Cell-based capture ELISA for inhibition of FAK autophosphorylation [pY397] in MiaPaCa2 cells
Experimental: Cell-Based Assays for Inhibition of FAK Autophosphorylation: MiaPaCa2 and U87MG
ELISA kit from Invitrogen (KHO0441).
Reagents Provided in Biosource FAK [pY397]
The cells were then suspended in cell assay medium.

FAK [2] = target: T1, FAK; assay: Biochemical HTRF (FRET) assay of FAK kinase activity; details: 100 uM ATP; biotinylated PGT substrate; read-out: Mean FAK Biochem FRET IC50 (100 uM ATP)
Experimental: Biochemical HTRF (FRET) Assay Protocol
The ability of compounds to inhibit the kinase activity of recombinant FAK enzyme was determined by a HTRF (FRET) assay using Biotinylated PGT (B*PGT) as a peptide substrate. […] The reaction is stopped after 1 h and phosphotyrosine content of Biotin*PGT is measured using anti-phosphotyrosine specific Mab label with Eu3+-cryptate (Cisbio) and XL665 labeled streptavidin (Cisbio) by Homogeneous Time-Resolved Fluorescence (HTRF) method.
The Stock Reagents used are as follows:
Enzyme Buffer Reaction Buffer plus 0.03% BSA.
Development Buffer: 1 part 200 mM EDTA/50 mM Tris-HCl pH 7.4; 2 parts 1M KF; 0.07% BSA.
Assay Protocol: The compounds were serially diluted from 10 uM to […] (1:5 dil, 10 points) in kinase buffer (1×) containing 3% DMSO and added 5 uL to each well of a 384-well plate except negative and positive control wells. Only DMSO was added to positive and negative control wells. For negative control wells, no ATP was added but only 5 uL of B*PGT was added. B*PGT (final conc 7.5 ng/well) and ATP (final conc 100 uM) was added in 5 uL to all wells except negative control wells. Reaction was started by adding FAK enzyme (final conc 0.2 ng/well) in 5 ul of enzyme buffer per well and incubated at RT for 1 h. Phospho-tyrosine content of B*BGT was detected by adding PT66-Cryptate (1:100 dil) and XL665 conjugated streptavidin (1:100 dil) to each well in 7.5 uL development buffer and incubating for 1 h at RT. The plate was read on Victor machine

FAK [3] = target: T1, FAK; assay: biochemical
FAK [4] = target: T1, FAK; assay: Cell-based capture ELISA for inhibition of FAK autophosphorylation [pY397] in U87MG cells; details: Mean FAK Cell Mechanistic IC50 + 50% mP U87MG, + 50% mouse plasma
[5] = MIA-PaCa2 cells on fibronectin, 2 h, no plasma, read-out: Mean FAK Cell Mechanistic IC50 MIA-PaCa2
[6] = MIA-PaCa2 cells, + 50% human plasma, read-out: Mean FAK Cell Mechanistic IC50 + 50% hP MIA-PaCa2
[7] = MIA-PaCa2 cells, + 50% mouse plasma (Table 2), read-out: Mean FAK Cell Mechanistic IC50 + 50% mP MIA-PaCa2
[8] = MIA-PaCa2 cells, + 50% mouse plasma (Table 3), read-out: Mean FAK Cell Mechanistic IC50 + 50% mP MIA-PaCa2

T1 sequence (Q05397 whole entry): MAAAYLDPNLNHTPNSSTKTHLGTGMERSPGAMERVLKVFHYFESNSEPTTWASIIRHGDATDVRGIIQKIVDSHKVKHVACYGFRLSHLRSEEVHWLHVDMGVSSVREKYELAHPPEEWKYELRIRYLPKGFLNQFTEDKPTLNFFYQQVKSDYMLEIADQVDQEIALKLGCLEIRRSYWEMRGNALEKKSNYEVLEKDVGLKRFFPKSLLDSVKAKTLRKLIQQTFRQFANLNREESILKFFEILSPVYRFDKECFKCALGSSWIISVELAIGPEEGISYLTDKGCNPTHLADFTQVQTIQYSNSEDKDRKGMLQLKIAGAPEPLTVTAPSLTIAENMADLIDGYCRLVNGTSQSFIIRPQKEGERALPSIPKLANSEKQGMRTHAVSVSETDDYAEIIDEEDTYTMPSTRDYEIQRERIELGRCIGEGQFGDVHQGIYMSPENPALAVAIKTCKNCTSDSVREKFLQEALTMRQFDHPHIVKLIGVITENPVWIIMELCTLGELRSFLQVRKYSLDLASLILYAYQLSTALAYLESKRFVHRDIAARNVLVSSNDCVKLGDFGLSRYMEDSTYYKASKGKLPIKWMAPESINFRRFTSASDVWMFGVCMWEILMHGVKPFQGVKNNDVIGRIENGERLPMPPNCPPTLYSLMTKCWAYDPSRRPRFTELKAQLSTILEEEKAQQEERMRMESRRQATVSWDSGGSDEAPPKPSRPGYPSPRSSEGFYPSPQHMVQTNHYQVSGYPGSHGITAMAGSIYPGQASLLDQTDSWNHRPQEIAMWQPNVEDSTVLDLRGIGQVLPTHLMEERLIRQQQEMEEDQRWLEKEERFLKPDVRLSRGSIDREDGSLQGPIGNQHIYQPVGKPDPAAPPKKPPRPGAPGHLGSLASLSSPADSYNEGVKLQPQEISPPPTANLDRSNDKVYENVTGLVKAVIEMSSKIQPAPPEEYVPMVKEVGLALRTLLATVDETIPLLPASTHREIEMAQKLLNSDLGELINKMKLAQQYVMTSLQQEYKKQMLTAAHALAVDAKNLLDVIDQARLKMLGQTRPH

Structure (SMILES) | IC50 (FAK [1]; [5]) [nM] | IC50 (FAK [1]; [6]) [nM] | IC50 (FAK [2]) [nM] | IC50 (FAK [3]) [nM] | IC50 (FAK [1]; [7]) [nM] | IC50 (FAK [1]; [8]) [nM] | IC50 (FAK [4]) [nM]
CCOP(=O)(Cc1ccc(Nc2ncc(C(F)(F)F)c(NCc3cccnc3N(C)S(C)(=O)=O)n2)cc1)OCC [Example 1, diethyl [4-({4-[({2-[methyl(methylsulfonyl)amino]pyridin-3-yl}methyl)amino]-5-(trifluoromethyl)pyrimidin-2-yl}amino)benzyl]phosphonate] | < 1000 | < 1000 | < 1000 | < 1000 |  |  | 
CCOP(=O)(OCC)c1ccc(Nc2ncc(C(F)(F)F)c(NCc3cccnc3N(C)S(C)(=O)=O)n2)cc1 [Example 2, Diethyl [4-({4-[({2-[methyl(methylsulfonyl)amino]pyridin-3-yl}methyl)amino]-5-(trifluoromethyl)pyrimidin-2-yl}amino)phenyl]phosphonate] |  |  | 1000 to 10000 |  |  |  | 
CCOP(=O)(Cc1cccc(Nc2ncc(C(F)(F)F)c(NCc3cccnc3N(C)S(C)(=O)=O)n2)c1)OCC [Example 4, Diethyl [3-({4-[({2-[methyl(methylsulfonyl)amino]pyridin-3-yl}methyl)amino]-5-(trifluoromethyl)pyrimidin-2-yl}amino)benzyl]phosphonate] | 1000 to 10000 | 1000 to 10000 | 1000 to 10000 | < 1000 |  |  | 
CCOP(=O)(OCC)C(C)c1ccc(Nc2ncc(C(F)(F)F)c(NCc3cccnc3N(C)S(C)(=O)=O)n2)cc1 (stereo not drawn) [Example 5, Diethyl {1-[4-({4-[({2-[methyl(methylsulfonyl)amino]pyridin-3-yl}methyl)amino]-5-(trifluoromethyl)pyrimidin-2-yl}amino)phenyl]ethyl}phosphonate] | < 1000 | < 1000 | < 1000 |  |  |  | 
CN(c1ncccc1CNc1nc(Nc2ccc(P(=O)(O)O)cc2)ncc1C(F)(F)F)S(C)(=O)=O [Example 6, [4-({4-[({2-[Methyl(methylsulfonyl)amino]pyridin-3-yl}methyl)amino]-5-(trifluoromethyl)pyrimidin-2-yl}amino)phenyl]phosphonic acid] | 1000 to 10000 |  | < 1000 | < 1000 |  |  | 
CCOP(=O)(OCC)C(C)(C)c1ccc(Nc2ncc(C(F)(F)F)c(NCc3cccnc3N(C)S(C)(=O)=O)n2)cc1 [Example 7] | < 1000 | < 1000 | < 1000 |  |  |  | 
CC(C)OP(=O)(Cc1ccc(Nc2ncc(C(F)(F)F)c(NCc3cccnc3N(C)S(C)(=O)=O)n2)cc1)OC(C)C [Example 27, dipropan-2-yl [4-({4-[({2-[methyl(methylsulfonyl)amino]pyridin-3-yl}methyl)amino]-5-(trifluoromethyl)pyrimidin-2-yl}amino)benzyl]phosphonate] | 1000 to 10000 | 1000 to 10000 | 1000 to 10000 |  | 1000 to 10000 |  | 
CN(c1ncccc1CNc1nc(Nc2ccc(CP(=O)(O)O)cc2)ncc1C(F)(F)F)S(C)(=O)=O [Example 41, [4-({4-[({2-[Methyl(methylsulfonyl)amino]pyridin-3-yl}methyl)amino]-5-(trifluoromethyl)pyrimidin-2-yl}amino)benzyl]phosphonic acid] | 1000 to 10000 | 1000 to 10000 | 1000 to 10000 | < 1000 | 1000 to 10000 |  | 
CCOP(C)(=O)Cc1cccc(Nc2ncc(C(F)(F)F)c(NCc3cccnc3N(C)S(C)(=O)=O)n2)c1 (stereo not drawn) [Example 46, Ethyl methyl[3-({4-[({2-[methyl(methylsulfonyl)amino]pyridin-3-yl}methyl)amino]-5-(trifluoromethyl)pyrimidin-2-yl}amino)benzyl]phosphinate] | < 1000 | < 1000 | 1000 to 10000 |  |  |  | 
CCOP(=O)(Cc1ccc(Nc2ncc(C(F)(F)F)c(Nc3cccc4[nH]cc(C)c(=O)c34)n2)c(OC)c1)OCC [Example 204, Diethyl [3-methoxy-4-({4-[(3-methyl-4-oxo-1,4-dihydroquinolin-5-yl)amino]-5-(trifluoromethyl)pyrimidin-2-yl}amino)benzyl]phosphonate] |  |  |  | < 1000 |  | < 1000 | < 1000
CNC(=O)c1ccccc1Nc1nc(Nc2ccc(CP(C)(=O)OCCOC)cc2OC)ncc1C(F)(F)F (stereo not drawn) [Example 216, 2-Methoxyethyl (3-methoxy-4-{[4-{[2-(methylcarbamoyl)phenyl]amino}-5-(trifluoromethyl)pyrimidin-2-yl]amino}benzyl)methylphosphinate] |  |  |  | < 1000 |  | < 1000 | < 1000
CCOP(=O)(Cc1ccc(Nc2ncc(C(F)(F)F)c(Nc3cccnc3C(=O)NC)n2)c(OC)c1)OCC [Example 231, Diethyl (3-methoxy-4-{[4-{[2-(methylcarbamoyl)pyridin-3-yl]amino}-5-(trifluoromethyl)pyrimidin-2-yl]amino}benzyl)phosphonate] |  |  |  | < 1000 |  | < 1000 | < 1000
CCOP(=O)(Cc1ccc(Nc2ncc(C(F)(F)F)c(Nc3ccc(C4CCC(N(C)CC)CC4)c4c3C(=O)N(C)C4)n2)c(OC)c1)OCC (stereo not drawn) [Example 236, Diethyl [4-({4-[(7-{4-[ethyl(methyl)amino]cyclohexyl}-2-methyl-3-oxo-2,3-dihydro-1H-isoindol-4-yl)amino]-5-(trifluoromethyl)pyrimidin-2-yl}amino)-3-methoxybenzyl]phosphonate] |  |  |  | < 1000 |  | < 1000 | < 1000
CCOP(=O)(Cc1ccc(Nc2ncc(C(F)(F)F)c(Nc3ccc([C@H]4CC[C@H](O)CC4)c4c3C(=O)N(C)C4)n2)cn1)OCC [Example 260, Diethyl [(5-{[4-{[7-(trans-4-hydroxycyclohexyl)-2-methyl-3-oxo-2,3-dihydro-1H-isoindol-4-yl]amino}-5-(trifluoromethyl)pyrimidin-2-yl]amino}pyridin-2-yl)methyl]phosphonate] |  |  |  | < 1000 |  | < 1000 | < 1000
CCOP(=O)(Cc1ccc(Nc2ncc(C(F)(F)F)c(Nc3ccc([C@H]4CC[C@H](O)CC4)c4c3C(=O)N(C)C4)n2)nc1)OCC [Example 309, Diethyl [(6-{[4-{[7-(trans-4-hydroxycyclohexyl)-2-methyl-3-oxo-2,3-dihydro-1H-isoindol-4-yl]amino}-5-(trifluoromethyl)pyrimidin-2-yl]amino}pyridin-3-yl)methyl]phosphonate] |  |  |  | < 1000 |  | < 1000 | < 1000
